In US20150321164A1, “METHOD FOR SYNTHESIZING AND SCREENING LEAD COMPOUND AND REAGENT TESTING KIT” (HITGEN LTD., priority 2012, published 2015):

Target: T1, trypsin (Bos taurus, UniProt P00760)
T1 sequence (P00760 24-246): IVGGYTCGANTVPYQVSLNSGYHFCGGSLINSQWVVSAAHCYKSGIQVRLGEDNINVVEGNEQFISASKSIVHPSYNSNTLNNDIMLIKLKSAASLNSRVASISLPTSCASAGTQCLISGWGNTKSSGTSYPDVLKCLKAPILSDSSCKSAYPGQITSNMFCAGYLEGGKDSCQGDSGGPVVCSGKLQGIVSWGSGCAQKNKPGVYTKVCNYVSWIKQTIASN
Test: trypsin enzyme inhibition activity
Assay type: biochemical
Conditions: enzyme inhibition activity of the resynthesized screened compound, FIGS. 4-5
Experimental: According to the structural formula, the compound is tested at the end of synthesis.

IC50: 8.1 ± 2.1 nM
SMILES: C[C@H](NC(=O)[C@H](CNC(=O)Cc1ccc2ccccc2c1)NS(=O)(=O)c1ccccc1)C(=O)NCc1ccc(C(=N)N)cc1
